# Measured values: ChEMBL document CHEMBL1201862, “PubChem BioAssay data set” (2004)
#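 Five concentrations, 48 hours, 96-well plates. GI50: concentration for 50% inhibition of growth.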 Activity calls are given as the source filed them. Rule as the data show it: active = GI50 up to about 1.1 µM and inactive = higher.
# How the values were obtained:
# Assay in all cases: NCI tumour cell line growth inhibition, 48 h
# [1] = tested on: NCI-H522
# [2] = tested on: PC-3
# [3] = tested on: A498
# [4] = tested on: 786-0
# [5] = tested on: MDA-MB-435
# [6] = tested on: MDA-N
# [7] = tested on: SNB-75
# [8] = tested on: HOP-62
# [9] = tested on: HCC 2998
# [10] = tested on: SN12C
# [11] = tested on: NCI-H460
# [12] = tested on: Hs-578T
# [13] = tested on: HL-60
# [14] = tested on: T47D
Compound,GI50 [1],GI50 [2],GI50 [3],GI50 [4],GI50 [5],GI50 [6],GI50 [7],GI50 [8],GI50 [9],GI50 [10],GI50 [11],GI50 [12],GI50 [13],GI50 [14]
CCCc1[nH]c2ccccc2c1-c1c(CCC)[nH]c2ccccc12,17.1 µM (inactive),5.42 µM (inactive),> 86.1 µM (inactive),15.5 µM (inactive),11.9 µM (inactive),7.96 µM (inactive),19.4 µM (inactive),16.9 µM (inactive),22.9 µM (inactive),10.1 µM (inactive),23.9 µM (inactive),6.95 µM (inactive),,
CSc1nc2c(c(=O)n1C)N=C(c1ccc(Cl)cc1)CC(c1ccccc1)N2 (stereo not drawn),17.6 µM (inactive),24.3 µM (inactive),33 µM (inactive),31 µM (inactive),34.4 µM (inactive),15.7 µM (inactive),13.3 µM (inactive),27.6 µM (inactive),24.6 µM (inactive),18.7 µM (inactive),,,29 µM (inactive),
CC(C)c1nccn1Cc1ccc(Cl)cc1Cl,21.2 µM (inactive),46.5 µM (inactive),55.5 µM (inactive),38 µM (inactive),49.7 µM (inactive),38.6 µM (inactive),36.5 µM (inactive),66.7 µM (inactive),23.4 µM (inactive),26.5 µM (inactive),34 µM (inactive),,,
O=C1NC(=O)C(CC2CCCCCCCCCCC2=O)C(=O)N1 (stereo not drawn),> 100 µM (inactive),> 100 µM (inactive),,> 100 µM (inactive),> 100 µM (inactive),> 100 µM (inactive),> 100 µM (inactive),> 100 µM (inactive),> 100 µM (inactive),> 100 µM (inactive),> 100 µM (inactive),> 100 µM (inactive),4.94 µM (inactive),
CC(C)=C[C@@H]1C[C@H](C)[C@H]2CC[C@H](C)[C@H]3C(=O)C(O)=C(C)C(=O)[C@]123,48.1 µM (inactive),27.4 µM (inactive),> 100 µM (inactive),> 100 µM (inactive),> 100 µM (inactive),> 100 µM (inactive),> 100 µM (inactive),> 100 µM (inactive),> 100 µM (inactive),> 100 µM (inactive),> 100 µM (inactive),> 100 µM (inactive),> 100 µM (inactive),
COc1ccc(-c2oc3cc(-c4cc5oc(-c6ccc(OC)cc6)c(-c6ccc(OC)cc6)c5cc4OC)c(OC)cc3c2-c2ccc(OC)cc2)cc1,> 100 µM (inactive),> 100 µM (inactive),> 100 µM (inactive),> 100 µM (inactive),> 100 µM (inactive),> 100 µM (inactive),> 100 µM (inactive),> 100 µM (inactive),> 100 µM (inactive),> 100 µM (inactive),> 100 µM (inactive),> 100 µM (inactive),,
COc1ccc(NC2Oc3cc4c(cc3C(c3cc(OC)c(O)c(OC)c3)C2C)OCO4)cc1 (stereo not drawn),3.33 µM (inactive),4.13 µM (inactive),6.79 µM (inactive),3.72 µM (inactive),0.406 µM (active),1.36 µM (inactive),2.11 µM (inactive),,5.22 µM (inactive),2.76 µM (inactive),3.83 µM (inactive),,1.79 µM (inactive),9.06 µM (inactive)
NC(=O)c1oc([N+](=O)[O-])c(-c2ccccc2)c1-c1ccccc1,12.6 µM (inactive),15.5 µM (inactive),,25.1 µM (inactive),14.9 µM (inactive),,65.9 µM (inactive),25.8 µM (inactive),,0.0367 µM (active),26.2 µM (inactive),0.0752 µM (active),25.1 µM (inactive),16.3 µM (inactive)
CC1(C)C2CCC1(C)[C@H](O)[C@H]2Nc1cc(C(F)(F)F)cc(C(F)(F)F)c1 (stereo partly drawn),,2.47 µM (inactive),> 100 µM (inactive),3.85 µM (inactive),3.42 µM (inactive),,0.0252 µM (active),5.48 µM (inactive),3.38 µM (inactive),,3.71 µM (inactive),,,2.59 µM (inactive)
